Results as given in publication PMC10947579, “Structure‐Based Demystification of Radical Catalysis by a Coenzyme B12 Dependent Enzyme—Crystallographic Study of Glutamate Mutase with Cofactor Homologues” (Angewandte Chemie (Weinheim an Der Bergstrasse, Germany), 2022).

Target: T1, glutamate mutase (GM) (Clostridium cochlearium, UniProt P80077+P80078)
T1 construct: gene glmE; hetero-tetramer (two epsilon, two sigma subunits), reconstituted with cobalamin
T1 sequence (P80077 1-483): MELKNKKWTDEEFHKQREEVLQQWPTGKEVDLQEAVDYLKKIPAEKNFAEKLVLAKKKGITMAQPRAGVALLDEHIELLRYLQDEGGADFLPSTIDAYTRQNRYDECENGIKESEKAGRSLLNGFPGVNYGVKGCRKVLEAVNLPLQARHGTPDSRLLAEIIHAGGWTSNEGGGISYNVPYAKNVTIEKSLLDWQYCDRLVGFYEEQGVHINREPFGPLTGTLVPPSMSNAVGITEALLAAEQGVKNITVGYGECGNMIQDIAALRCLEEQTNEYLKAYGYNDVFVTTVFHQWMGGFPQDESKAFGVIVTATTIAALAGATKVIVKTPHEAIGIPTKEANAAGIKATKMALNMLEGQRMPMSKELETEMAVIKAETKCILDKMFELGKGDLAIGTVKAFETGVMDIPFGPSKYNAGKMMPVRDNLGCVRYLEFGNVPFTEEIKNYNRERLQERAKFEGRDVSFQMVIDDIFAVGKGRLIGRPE
T1 sequence (P80078 1-137): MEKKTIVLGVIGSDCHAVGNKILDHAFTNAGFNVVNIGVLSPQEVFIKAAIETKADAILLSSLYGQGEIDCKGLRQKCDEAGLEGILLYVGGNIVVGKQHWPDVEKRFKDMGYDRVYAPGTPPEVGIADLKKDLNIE
Assay: X-ray crystal structure, […] Å
Format: binding
Conditions: with AdoMeCbl (also bound in the AdoEtCbl complex 6H9F); pseudo-substrate in substrate site of epsilon subunit (arginine claw)

`O=C(O)[C@@H](O)[C@H](O)C(=O)O` [(S,S)‐tartrate] was tested. Which “X-ray crystal structure, 1.8 Å” value did it give?
Its value is “strong polar binding interactions with the carboxylate groups of an (S,S)‐tartrate ion”.
